In assay [1] the test system is Helicobacter pylori. The experiment in a line: TLC bacterial overlay assay with 35S-labeled Helicobacter pylori. It counts as binding. To be noted: for binding of Helicobacter pylori to the glycosphingolipid on TLC plates: overlay with 35S-labeled bacteria, autoradiography, visual evaluation; for lowest amount of glycolipid giving a positive response on TLC plates: dilution series, semi-quantitative, evaluated visually, pentaglycosylceramide mean of 7 experiments; for binding of Helicobacter pylori strain 032 to purified glycosphingolipids (FIGS. 7A and 7B): 4 μg per lane, autoradiography 72 h; for binding activity of neoglycolipid with regard to Helicobacter pylori: oligosaccharide reductively aminated with 4-hexadecylaniline (HDA); for binding of Helicobacter pylori strain 032 to purified glycosphingolipids (FIGS. 7A and 7B) / binding frequency: strain 032; for binding frequency: total number of plates about 100.

Assay [2] concerns Helicobacter pylori. The note with it: Mysore et al.; cited from earlier work.
The subject of assay [3] is Helicobacter pylori binding to human gastrointestinal cell lines. The note with it: Simon et al.; cited from earlier work.

The values below come from patent US20040096465A1, “Novel receptors for $1(helicobater pyroli) and use thereof” (priority 2001, published 2004).

Entries after “also recorded” stand apart in the source; their conditions may differ.

On to “Galα3Galβ4GlcNAcβ3Galβ4GlcNAcβ3Galβ4GlcβCer”, for which the “binding of Helicobacter pylori to the glycosphingolipid on TLC plates” value (from here on “binding of Helicobacter pylori … on TLC plates”) in the assay on Helicobacter pylori [1] is on record as “higher activity”; with Helicobacter pylori [1] (listed as no. 28) it was “observed binding”.
As to Galβ4GlcNAcβ3Galβ4GlcβCer, in the assay on Helicobacter pylori [1], the “lowest amount of glycolipid giving a positive response on TLC plates” value (“lowest amount” for short) is on record as about 0.3 nmol/spot; the “binding of Helicobacter pylori … on TLC plates” value is “binding is weaker”; the “binding of Helicobacter pylori strain 032 to purified glycosphingolipids (FIGS. 7A and 7B)” value (“binding … (FIGS. 7A and 7B)” below) is reported as “binding”. The “binding of Helicobacter pylori … on TLC plates” value in the assay on Helicobacter pylori [1] (listed as tetraglycosylceramides) is “displayed binding activity”.
Consider “maltoheptaose(red)-HDA [reference compound]”, for which the “binding activity of neoglycolipid with regard to Helicobacter pylori” value (“binding activity of neoglycolipid” for short) with Helicobacter pylori [1] was “weakly binding or inactive”.
GlcNAcβ3Galβ4GlcNAcβ3Galβ4GlcβCer: in the assay with Helicobacter pylori [1], the “lowest amount” value is listed as 0.039 nmol/spot. The “binding of Helicobacter pylori … on TLC plates” value with Helicobacter pylori [1] is listed as “binding-active; also recorded: high affinity”; with Helicobacter pylori [1] (listed as five-sugar glycosphingolipid from rabbit thymus), “equally active”; in the assay on Helicobacter pylori [1] (listed as pentaglycosylceramide), “strong activity; also recorded: highly active; also recorded: most active species”; with Helicobacter pylori [1] (listed as pentaglycosylceramides), “displayed binding activity”. Besides, the binding frequency in the assay with Helicobacter pylori [1] is on record as about 90%.
Consider Glcβ3Galβ4GlcNAcβ3Galβ4GlcβCer, for which, in the assay with Helicobacter pylori [1], the “binding of Helicobacter pylori … on TLC plates” value was “strong binding”.
In the case of `CC(=O)N[C@H]1[C@H](OC[C@H]2OC(O)[C@H](O)[C@@H](O)[C@H]2O)O[C@H](CO)[C@@H](O[C@@H]2O[C@H](CO)[C@H](O)[C@H](O[C@@H]3O[C@H](CO)[C@@H](O)[C@H](O)[C@H]3NC(C)=O)[C@H]2O)[C@@H]1O` (stereo partly drawn) [GlcNAcβ3Galβ4GlcNAcβ6Gal], the “binding activity of neoglycolipid” value with Helicobacter pylori [1] was “some binding activity”.
Turning to “Glc(A-methylamide)β3Galβ4GlcNAcβ3Galβ4GlcβCer”, the “binding of Helicobacter pylori … on TLC plates” value in the assay with Helicobacter pylori [1] is reported as “very strong binding”.
Take GlcAβ3Galβ4GlcNAcβ3Galβ4GlcβCer: the “binding of Helicobacter pylori … on TLC plates” value in the assay with Helicobacter pylori [1] is reported as “binding active”.
Regarding GlcNAcβ3Galβ4GlcNAcβ6GlcNAc(red)-HDA, the “binding activity of neoglycolipid” value in the assay with Helicobacter pylori [1] is “strong binding activity”; with Helicobacter pylori [1] (listed as GlcNAcβ3Galβ4GlcNAcβ6GlcNAc) it was “high affinity binding”.
With “NeuAcα3GalNAcβ3Galβ4GlcNAcβ3Galβ4Glcβ1Cer [NeuAc-x2]”, the results for the “binding of Helicobacter pylori … on TLC plates” value in the assay on Helicobacter pylori [1] (listed as Neu5Acα3GalNAcβ3Galβ4GlcNAcβ3Galβ4GlcβCer), in the assay on Helicobacter pylori [1] (listed as NeuAcα3GalNAcβ3Galβ4GlcNAcβ3Galβ4GlcβCer) and in the assay on Helicobacter pylori [1] (listed as no. 24) were “did not appear to bind”, “non-binding” and “complete loss of binding”, respectively. For the same compound, in the assay with Helicobacter pylori [1], the “binding … (FIGS. 7A and 7B)” value is “non-binding”.
As for GalNAcα3Galβ4GlcNAcβ3Galβ4GlcβCer, the figures for the “binding of Helicobacter pylori … on TLC plates” value with Helicobacter pylori [1] and with Helicobacter pylori [1] (listed as GalNAcα3 Galβ4GlcNAcβ3Galβ4GlcβCer) were “bind Helicobacter pylori” and “binding was also found”, respectively.
Turning to Fucα2Galβ4GlcNAcβ3Galβ4Glcβ1Cer [H5-2], the “binding of Helicobacter pylori … on TLC plates” value in the assay on Helicobacter pylori [1] was “absence of binding”; in the assay with Helicobacter pylori [1] (listed as HS-2) it was “inactive”.
For Galα3Galβ4GlcNAcβ3Galβ4GlcβCer, the “binding of Helicobacter pylori … on TLC plates” value was “bind Helicobacter pylori” in the assay with Helicobacter pylori [1], “binding” in the assay on Helicobacter pylori [1] (listed as B5) and “equally active” with Helicobacter pylori [1] (listed as B5 glycosphingolipid). Besides, the “binding … (FIGS. 7A and 7B)” value in the assay with Helicobacter pylori [1] is given as “binding-active”.
Take Galβ4GlcNAcβ3Galβ4GlcNAcβ3Galβ4GlcβCer: in the assay with Helicobacter pylori [1], the “lowest amount” value is listed as about 0.2 nmol/spot, the “binding of Helicobacter pylori … on TLC plates” value was “weaker binding; also recorded: weaker activity” and the binding frequency is given as about 90%. Also, in the assay with Helicobacter pylori [1] (listed as Galβ4GlcNAcβ3Galβ4-GlcNAcβ3Galβ4GlcβCer), the “binding of Helicobacter pylori … on TLC plates” value is “binding-active; also recorded: reduced affinity”. Further, the “binding of Helicobacter pylori … on TLC plates” value with Helicobacter pylori [1] (listed as hexaglycosylceramides) is on record as “displayed binding activity”.
On to “NeuGcα3Galβ4GlcNAcβ3Galβ4GlcNAcβ3Galβ4GlcβCer”, for which the “binding by Helicobacter pylori isolates” value with Helicobacter pylori [1] (about 60 isolates tested) is recorded as “bound by most Helicobacter pylori isolates”. In the assay with Helicobacter pylori [1], the “binding of Helicobacter pylori … on TLC plates” value was “weaker binding”.
In the case of `CCCCCCCCCCCCCCCCc1ccc(NC[C@H](O)[C@@H](O)[C@H](O[C@@H]2O[C@H](CO)[C@H](O)[C@H](O[C@@H]3O[C@H](CO)[C@@H](O[C@@H]4O[C@H](CO)[C@H](O)[C@H](O[C@@H]5O[C@H](CO)[C@@H](O)[C@H](O)[C@H]5NC(C)=O)[C@H]4O)[C@H](O)[C@H]3NC(C)=O)[C@H]2O)[C@H](O)CO)cc1` [GlcNAcβ3Galβ4GlcNAcβ3Galβ4Glc(red)-HDA], in the assay on Helicobacter pylori [1], the “binding activity of neoglycolipid” value was “clear binding activity”.
GlcNAcβ3Galβ4GlcNAc(red)-HDA: the “binding activity of neoglycolipid” value in the assay on Helicobacter pylori [1] is “weakly binding or inactive”.
Regarding Galα3Galβ4GlcNβ3Galβ4GlcβCer, the “binding of Helicobacter pylori … on TLC plates” value in the assay on Helicobacter pylori [1] is “not binding”; in the assay on Helicobacter pylori [1] (listed as Galα3Galβ4GlcNH2βGalβ4GlcβCer), “non-binding”; with Helicobacter pylori [1] (listed as no. 14), “loss of bacterial binding”.
As to sialyl-lactose, in the assay on Helicobacter pylori [2], the “efficacy in rhesus monkey animal model of the infection” value is recorded as “effective”. Also, in assay [3], the “inhibition of Helicobacter pylori binding to human gastrointestinal cell lines” value is “inhibits”.
As for “Galβ4GlcNAcβ3(Galβ4GlcNAcβ6)Galβ4GlcβCer”, the “binding of Helicobacter pylori … on TLC plates” value in the assay with Helicobacter pylori [1] was “destroyed”; in the assay with Helicobacter pylori [1] (listed as glycosphingolipid from bovine buttermilk), “non-binding”.
In the case of Galβ4GlcNβ3Galβ4GlcβCer, the “binding of Helicobacter pylori … on TLC plates” value is listed as “not binding” in the assay with Helicobacter pylori [1] and “loss of bacterial binding” with Helicobacter pylori [1] (listed as no. 6).
For Galα3Galβ4GlcNAcβ3Galβ4Glc(red)-HDA, in the assay with Helicobacter pylori [1], the “binding activity of neoglycolipid” value is recorded as “clear binding activity”.
As for “GalNAcβ3Galβ3Galβ4GlcNAcβ3Galβ4Glcβ3Cer [GalNAcβ3-B5]”, the “binding of Helicobacter pylori … on TLC plates” value with Helicobacter pylori [1] was “non-binding”; in the assay with Helicobacter pylori [1] (listed as GalNAcβ3Galβ3Galβ4GlcNAcβ3Galβ4Glcβ3Cer), “did not appear to bind”; with Helicobacter pylori [1] (listed as no. 25), “complete loss of binding”.
On to GalNAcβ3Galβ4GlcNAcβ3Galβ4GlcβCer, for which the “binding of Helicobacter pylori … on TLC plates” value in the assay with Helicobacter pylori [1] is reported as “bind Helicobacter pylori”; in the assay with Helicobacter pylori [1] (listed as x2 GSL), “binding”. Also, the “binding … (FIGS. 7A and 7B)” value with Helicobacter pylori [1] is “binding was also found”.
As for GlcNAcβ3Galβ4GlcβCer, the “binding of Helicobacter pylori … on TLC plates” value is “not binding” in the assay on Helicobacter pylori [1] and “inactive” with Helicobacter pylori [1] (listed as triglycosylceramide).
For “Galα3(Fucα2)Galβ4GlcNAcβ3Galβ4Glcβ1Cer [B6-2]”, the “binding of Helicobacter pylori … on TLC plates” value is “non-binding; also recorded: inactive” in the assay with Helicobacter pylori [1] and “non-binding” in the assay on Helicobacter pylori [1] (listed as Galα3(Fucα2)Galβ4GlcNAcβ3Galβ4Glcβ3Cer).
